# Literature values, collected in patent US10878939B2, “Methods and compositions for personalized pain management” (Children's Hospital Medical Center, priority 2014, dated 2020).
# Conditions: other reports; cited from earlier work
compound,measurement,value
"CN1CC[C@]23c4c5ccc(O[C@@H]6O[C@H](C(=O)O)[C@@H](O)[C@H](O)[C@H]6O)c4O[C@H]2[C@@H](O)C=C[C@H]3[C@H]1C5 [M3G, Morphine-3-Glucuronide]",M3G metabolite formation relative to M6G formation,7-10 fold
